Here are results for eight compounds from patent publication US20090221568A1, “Synthesis of Inhibitors of FtsZ” (priority 2005, published 2009).

Assay [1] concerns the target T1, E. coli FtsZ (Escherichia coli, UniProt P0A9A6).
T1 construct: made in house; host or cells: E. coli BL21(λDE3)
Briefly: FtsZ GTPase assay (malachite green). Type of assay: biochemical. The protocol: GTPase Assay: Untagged E. coli FtsZ was expressed from pET-3Z^+ in BL21(λDE3) cells (RayChaudhuri, D.; Park, J. T. Nature 1992, 359, 251-254) and purified using a two-step ammonium sulfate fractionation (Romberg et al. J. Biol. Chem. 2001, 276, 11743-11753). FtsZ GTPase assay was performed essentially as described by Margalit et al. (Margalit et al. Proc. Natl. Acad. Sci. U.S.A. 2004, 101, 11821-11826). Briefly, 2 μM E. coli FtsZ in polymerization buffer (4-morpholinepropanesulfonic acid, pH 6.5, 50 mM KCl, 5 mM MgCl2) was preincubated with or without varying concentrations of test compounds (in dimethyl sulfoxide, DMSO) such that the DMSO concentrations in the samples were ˜2%. The control tubes received 2% DMSO alone. After a 5-min preincubation at 25° C., the reactions were initiated by adding 0.5 mM GTP. Aliquots were withdrawn after 5, 15 and 25 ininute intervals and quenched with 50 mM EDTA before color development with the malachite green solution [2 volumes malachite green (0.8 mg/ml)/1 volume polyvinyl alcohol (23.2 mg/ml)/1 volume ammonium molybdate (57.2 mg/ml in 2H2O:3HCl)/2 volumes H2O]. IC50 values were determined from the relative slopes of GTP hydrolysis at different inhibitor concentrations compared to the control with DMSO only.

The test system of a further assay is S. aureus. The conditions noted are these: cited from earlier work.
The next assay deals with B. subtilis. Conditions: cited from earlier work.
The next assay has as its system M. smegmatis. The conditions noted are these: cited from earlier work.
A further assay concerns E. coli. The conditions noted are these: dash with footnote b = no significant activity; cited from earlier work.
In another assay the test system is P. aeruginosa. Conditions: dash with footnote b = no significant activity; cited from earlier work.
For assay [2], the target named is T1, E. coli FtsZ. The conditions noted are these: value from Margalit et al. 2004 (footnote a); read-out: Inhibition of E. coli FtsZ GTPase activity, IC50; cited from earlier work.
The next assay deals with bacterial strains. Conditions: higher MICs indicate that a strain is becoming resistant; cited from earlier work.
Setting [3] is: 2 μM E. coli FtsZ, 0.5 mM GTP, pH 6.5, 25° C., read-out: Inhibition of E. coli FtsZ GTPase activity, IC50.

Structures are written as SMILES. Where two headings read alike, the source gives them in different places.

T1 sequence (P0A9A6 whole entry): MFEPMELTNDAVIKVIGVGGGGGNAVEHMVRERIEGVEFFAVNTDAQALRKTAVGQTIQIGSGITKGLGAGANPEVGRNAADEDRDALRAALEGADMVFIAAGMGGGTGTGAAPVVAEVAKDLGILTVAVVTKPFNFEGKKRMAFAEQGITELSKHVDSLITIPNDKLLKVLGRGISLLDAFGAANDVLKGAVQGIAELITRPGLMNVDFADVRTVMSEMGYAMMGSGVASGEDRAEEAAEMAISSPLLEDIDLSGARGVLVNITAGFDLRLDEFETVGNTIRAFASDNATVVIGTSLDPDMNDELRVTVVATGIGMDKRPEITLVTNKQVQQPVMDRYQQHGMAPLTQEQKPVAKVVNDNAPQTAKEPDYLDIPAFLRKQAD

A word on the IC50: it is the concentration that inhibits the measured activity by half. Take `O=C1C[C@@H](c2ccccc2)Oc2c(Cc3ccccc3O)c(O)c(Cc3ccccc3O)c(O)c21` (racemic) [Compound 2, (±)-Dichamanetin]: the “Inhibition of E. coli GTPase activity, in words” value (“Inhibition” for short) at E. coli FtsZ [1] was “potent inhibitors”. For the same compound, the 50% inhibitory concentration (IC50) on E. coli FtsZ [1] (setting [3]) was 12.5 ± 0.5 µM. Further, the “Antimicrobial activities (MICs) S. aureus” value in the assay with S. aureus was 1.7 µM. Moreover, the “Antimicrobial activities (MICs) B. subtilis” value in the assay with B. subtilis was 1.7 µM. Besides, in the assay with M. smegmatis, the “Antimicrobial activities (MICs) M. smegmatis” value is 3.4 µM.
For the compound `O=C1C[C@@H](c2ccccc2)Oc2c(Cc3cc(Cc4ccccc4O)ccc3O)c(O)c(Cc3cc(Cc4ccccc4O)ccc3O)c(O)c21` (racemic) [Compound 3, (±)-2′″-Hydroxy-5″-benzylisouvarinol-B], at E. coli FtsZ [1], the IC50 came out at 8.3 ± 0.5 µM and the “Inhibition” value is “potent inhibitors”. Also, the “Antimicrobial activities (MICs) S. aureus” value with S. aureus was 10.7 µM. For the same compound, the “Antimicrobial activities (MICs) B. subtilis” value in the assay with B. subtilis was 2.6 µM. The “Antimicrobial activities (MICs) M. smegmatis” value in the assay on M. smegmatis was 3.8 µM. Further, the “Antimicrobial activities (MICs) E. coli” value in the assay on E. coli is 2.3 µM. The “Antimicrobial activities (MICs) P. aeruginosa” value in the assay on P. aeruginosa was 15.4 µM.
As to `CC1(C)CC(=O)c2c(O)c(Cc3ccccc3O)c(O)c(Cc3ccccc3O)c2O1` [5,7-dihydroxy-6,8-bis(2-hydroxybenzyl)-2,2-dimethylchroman-4-one], at E. coli FtsZ [1] (FIG. 27 legend, test not named, presumably FtsZ GTPase, read-out: IC50), the IC50 worked out at 21 µM.
Take `Oc1ccc(Cl)cc1Cc1cc(Cl)cc(Cc2cc(Cl)ccc2O)c1O` [Compound 1, Zantrin Z1, reference compound]: the “Antimicrobial activities (MICs) S. aureus” value with S. aureus is 2.5 µM. In the assay with B. subtilis, the “Antimicrobial activities (MICs) B. subtilis” value was 1.25 µM. The “Antimicrobial activities (MICs) E. coli” value with E. coli was 20 µM. In addition, the “Antimicrobial activities (MICs) P. aeruginosa” value in the assay with P. aeruginosa is 40 µM. At E. coli FtsZ [2], the IC50 is 5 ± 0.5 µM.
For the compound `CC(=O)c1c(O)c(Cc2ccccc2O)c(O)c(Cc2ccccc2O)c1O` [Compound 11, 2,4,6-Trihydroxy-3,5-di(2′-hydroxybenzyl)-acetophenone], the “Inhibition” value on E. coli FtsZ [1] is “much less potent”. The half-inhibitory concentration (IC50) at E. coli FtsZ [1] (setting [3]) was found to be 60.4 ± 2.2 µM.
As for `CC[C@H]1OC(=O)[C@H](C)[C@@H](O[C@H]2C[C@@](C)(OC)[C@@H](O)[C@H](C)O2)[C@H](C)[C@@H](O[C@@H]2O[C@H](C)C[C@H](N(C)C)[C@H]2O)[C@](C)(O)C[C@@H](C)C(=O)[C@H](C)[C@@H](O)[C@]1(C)O` [erythromycin], the “effective MIC defined by NCCLS” value in the assay with bacterial strains was 0.4 µM.
`COc1cccc(OC)c1C(=O)N[C@@H]1C(=O)N2[C@@H]1SC(C)(C)[C@@H]2C(=O)O` [methicillin]: the “effective MIC defined by NCCLS” value with bacterial strains is 0.8 µM.
In the case of `CN[C@H](CC(C)C)C(=O)N[C@H]1C(=O)N[C@@H](CC(N)=O)C(=O)N[C@H]2C(=O)N[C@H]3C(=O)N[C@H](C(=O)N[C@H](C(=O)O)c4cc(O)cc(O)c4-c4cc3ccc4O)[C@H](O)c3ccc(c(Cl)c3)Oc3cc2cc(c3O[C@@H]2O[C@H](CO)[C@@H](O)[C@H](O)[C@H]2O[C@H]2C[C@](C)(N)[C@H](O)[C@H](C)O2)Oc2ccc(cc2Cl)[C@H]1O` [vancomycin], the “effective MIC defined by NCCLS” value with bacterial strains was 5.8 µM.
